From patent publication US5187071A, “Method for the selective control of weeds, pests, and microbes” (priority 1988, dated 1993)

Columns and labels:
[1] = test system: microbial prephenate dehydrogenase; assay: substrate utilization by microbial prephenate dehydrogenase; assay type: biochemical
From the text: (§1) Therefore, prephenyllactate is an appropriate prephenate analog for the control of phytopathogens.

[2] = test system: cyclohexadienyl dehydrogenase; assay: substrate utilization by cyclohexadienyl dehydrogenase; assay type: biochemical
From the text: as §1

[3] = test system: arogenate dehydrogenase; assay: substrate utilization by arogenate dehydrogenase enzymes; assay type: biochemical
From the text: as §1

[4] = test system: DAHP synthase isozymes of higher plants; assay: inhibition of DAHP synthase isozymes of higher plants; assay type: biochemical; conditions: two separately compartmented isozymes
From the text: The early amino acid pathway circuit entails the feedback inhibition of 3-deoxy-D-arabinoheptulosonate 7-P (DAHP) synthase by chorismate. Thus, the DAHP synthase of Xanthomonas offers unique target of vulnerability in nature since an appropriate analog mimic of chorismate produces false feedback inhibition of DAHP synthase in Xanthomonas but not in the higher plant host. […] Step two of the claimed process has thus been completed.
The DAHP synthase of xanthomonads is also sensitive to inhibition by L-tryptophan. […] Thus, analog mimics of L-tryptophan attack a second site within the basic DAHP synthase target of Xanthomonas.

[5] = test system: 3-deoxy-D-arabino-heptulosonate 7-phosphate synthase; assay: feedback inhibition of chloroplast DAHP synthase; assay type: biochemical, higher plants; conditions: higher-plant chloroplasts
From the text: Because L-arogenate regulates aromatic amino acid biosynthesis in the chloroplast by feedback inhibition exerted upon the initial enzyme of aromatic biosynthesis, it provides an excellent point of attack. Application of L-arogenate or an L-arogenate-type compound will cause a serious disturbance of the feedback inhibition mechanism of this crucial metabolic pathway.

[6] = test system: a variety of bacteria, including N. gonorrhoeae; assay: energy drain / PEP depletion in bacteria after EPSP synthase block; assay type: cell-based
From the text: The enzymic target of N-(phosphonomethyl) glycine action is not present in mammalian systems, therefore, N-(phosphonomethyl) glycine is not toxic to the human host. Because N-(phosphonomethyl) glycine acts on an enzyme which is present in pathogenic bacteria but not in the human host, this compound could be used as an effective control agent for bacterial pathogens.

O=C(O)C(O)CC1(C(=O)O)C=CC(O)C=C1 (stereo not drawn) [prephenyllactate, β-(1-carboxyl-4-hydroxy-2,5-cyclohexadien-1-yl) lactic acid]
utilization as substrate by microbial prephenate dehydrogenase [1]: as a substrate quite well
utilization as substrate by cyclohexadienyl dehydrogenase [2]: as a substrate quite well
utilization as substrate by arogenate dehydrogenase enzymes [3]: do not use prephenyllactate as a substrate

N[C@@H](Cc1c[nH]c2ccccc12)C(=O)O [L-tryptophan]
sensitivity of higher-plant DAHP synthase isozymes to inhibition [4]: not affected

N[C@@H](CC1(C(=O)O)C=CC(O)C=C1)C(=O)O (stereo partly drawn) [L-arogenate]
feedback inhibition of the initial enzyme of aromatic biosynthesis [5]: feedback inhibitor

O=C(O)CNCP(=O)(O)O [N-(phosphonomethyl) glycine]
drain upon intracellular supplies of PEP ([6]; even at microgram levels, shikimate-3-phosphate accumulates): produces a drain upon intracellular supplies of PEP
energy drain from depletion of PEP and ATP ([6]; variety of bacteria, including N. gonorrhoeae): severe energy drain

C=C(O[C@@H]1C=C(C(=O)O)C=C[C@H]1O)C(=O)O [chorismate]
sensitivity of higher-plant DAHP synthase isozymes to inhibition [4]: neither sensitive to inhibition
